{"source": "patent US10500169B2", "about": "“Supression of IgE production by compounds derived from traditional chinese medicine” (Sean N. Parker Foundation, priority 2014, dated 2019)", "key": {"U266 cells [1]": {"test_system": "U266 cells", "experiment": "IgE production by U266 myeloma cells, ELISA of supernatants", "type": "cell-based, human", "conditions": "for IC50: 6 days culture, read-out: IC50 of inhibition of IgE production by U266 cells; for effect on IgE production by U266 cells (in words): different concentrations", "experimental": "The IgE producing human U266 myeloma cell line (American Type Culture Collection; Rockville, Md.) has been used for screening pharmaceutical agents for IgE inhibitory effects, and thus this cell line was used to test the potential IgE inhibitory effects of herb extracts and purified compounds. Cells were cultured at 37° C. under 5% CO2 in complete media containing RPMI 1640 medium supplemented, 10% FBS, 1 mM sodium pyruvate, 1×10^-5 M β-ME and 0.5% penicillin-streptomycin. Cells were grown at an initial concentration of 2×10^5 cells/mL. FAHF-2 and B-FAHF-2, individual herb extracts and isolated compounds at different concentrations were added at day 0. Supernatants were harvested after 6 days culture, and IgE levels were determined by using an ELISA Kit (Mabtech Inc, OH). In each experiment, we run duplicate ELISA. In vitro experiments were repeated at least 3 times.\nHuman U266 myeloma cells (American Type Culture Collection; Rockville, Md.) were cultured in complete medium (RPMI 1640 medium supplemented, 10% FBS, 1 mM sodium pyruvate, 1×10^−5 M β-ME and 0.5% penicillin-streptomycin) at 37° C. under 5% CO2. Cells were grown at an initial concentration of 2×10^5 cells/mL with purpurin and alizarin from Rubia cordifolia L. at different concentrations (0.31, 0.62, 1.25, 2.5, 5 μg/mL), and with arctiin and arctigenin from Arctium lappa L. at different concentrations ([…]) for 6 days. The supernatants were harvested on day 6 for total IgE analysis using ELISA."}, "[2]": {"test_system": "peanut sensitized C3H/HeJ Mice", "experiment": "Peanut allergic mouse model, 1,3-Dihydroxyanthraquinone 200 μg per mouse per day for seven weeks", "type": "in vivo", "experimental": "FIG. 10 illustrates the in vivo experiment protocol. C3H/HeJ Mice were orally sensitized with 10 mg peanut and […] weekly for 5 weeks as described in methods. At weeks 6, 7 and 8, mice were boosted with 50 mg peanut mixed with cholera toxin. Seven weeks of 1,3-Dihydroxyanthraquinone (200 μg per mouse per day) treatment was started at W6. Mice were challenged with PN at week 13 and again at week 18. Mice were sacrificed 48 hours after last challenge."}, "[3]": {"test_system": "peanut allergic C3H/HeJ mice", "experiment": "Peanut allergic mouse model, 400 μg of compound intragastrically daily for 4 weeks", "type": "in vivo", "conditions": "for body temperature following PN challenge: 30 minutes after oral challenge; for histamine level in plasma: week 15 post therapy challenge", "experimental": "Freshly ground, whole roasted peanuts were homogenized in sterile PBS (Mediatech, VA) until a smooth suspension was obtained. Female C3H/HeJ mice were sensitized intragastrically (i.g.) with ground PN (10 mg/mouse) and cholera toxin (20 μg), on three consecutive days at week 0, and once a week for 5 weeks, and boosted at weeks 6 and 8 with 50 mg/mouse of PN and cholera toxin (20 μg) (FIG. 37A) as previous described^(40). Mice were intragastrically administered with 400 μg of three different active compounds (arctiin and arctigenin from Arctium lappa L., and 1,3-Dihydroxyanthraquinone from Rubia cordifolia L.) daily 24 h after the week 8 boosting and under this treatment for 4 weeks. Eight PN sensitized/boosted mice receiving 0.5 ml of 0.1% DMSO in water twice daily for the same period of treatment time as sham control mice for this experiment.\nAnaphylactic symptoms were evaluated 30 min after challenge dose by two investigators using a scoring system described previously: […]; 1, scratching and rubbing around the snout and head; 2, puffiness around the eyes and mouth, pilar erection and reduced activity with an increased respiratory rate; 3, wheezing, labored respiration and cyanosis around the mouth; 4, no activity after prodding, or tremors, and convulsion; 5, death due to anaphylaxis.\nTo test the IgE inhibition effect of arctiin, arctigenin, and 1,3-dihydroxyanthraquinone in vivo, we treated peanut allergic mice with 400 μg of each active compound daily for four weeks, as shown in FIG. 37A.^(2)"}, "human PBMCs": {"test_system": "human PBMCs", "experiment": "IgE production by PBMCs from food allergic patients stimulated with rIL-4 and anti-CD40 mAb, ELISA", "type": "cell-based", "conditions": "Homo sapiens, PBMC, 240 h; 20 μg/mL, 10 days, rIL-4 100 ng/mL + anti-CD40 mAb 1 μg/mL", "experimental": "PBMCs were isolated by Ficoll Hypaque (Pharmacia, Piscataway, N.J.) using density gradient centrifugation at 1800 RPM for 30 minutes, and washed 3 times in PBS. To determine the optimal stimulation of IgE production by PBMCs, PBMCs at 1.5×10^6 cells/mL were suspended in complete RPMI medium (200 μM L-glutamine, 1% penicillin/streptomycin, 25 mM HEPES, 10% heat inactivated fetal calf serum), and co-stimulated with human recombinant IL-4 (rIL-4) at 0.01 and 0.1 μg/mL (R&D Systems, Minneapolis, Minn., USA) and anti-CD40 monoclonal antibody (mAb) at […] (R&D) for 10 and 14 days. At the end of incubation, the supernatants were collected and IgE levels were analyzed using ELISA kit (Mabtech Inc, OH). Since PBMCs stimulated with 100 ng/mL rIL-4 and 1 μg/mL anti-CD40 mAb produced the highest level of IgE, we used this culture condition for the subsequent studies. PBMCs were stimulated with 100 ng/mL rIL-4 and 1 μg/mL anti-CD40 mAb and cultured in the presence or absence of 20 μg/mL of the two purified compounds for 10 days for screening active compounds, and at different concentrations (0.15, 0.31, 0.62, 1.25, 2.5, 5, 10 μg/mL) to examine dose responses for the effective compounds. IgE level was evaluated using ELISA. The percentage of IgE inhibition was calculated as follows: […]. In some cases if enough PBMCs were obtained, aliquots of PBMCs prepared from the same individuals were used for different experiments."}, "U266 cells [4]": {"test_system": "U266 cells", "experiment": "Cell viability of U266 cells, trypan blue exclusion", "type": "cell-based, human", "conditions": "at the concentrations tested", "experimental": "Cell viability was evaluated using a trypan blue exclusion as previously described. Briefly, a 10 μl of cells suspension from each culture was mixed with equal volume of trypan blue dye. The mixture was loaded into a hemocytometer and cells were counted under a microscope. The percentage of viable cells was calculated as follows: Viable cells (%)=(total number of viable cells)/(total number of cells)×100."}, "[5]": {"test_system": "peanut-allergic patients with high levels of IgE", "conditions": "cited from earlier work"}, "peanut allergy subjects": {"test_system": "peanut allergy subjects", "conditions": "cited from earlier work"}}, "data": [{"molecule": "O=C1c2ccccc2C(=O)c2c1ccc(O)c2O", "note": "[alizarin]", "values": [{"measurement": "IC50", "setting": "U266 cells [1]; Homo sapiens, U-266, 144 h", "result": 0.762, "unit": "µg/mL"}, {"measurement": "effect on IgE production by U266 cells (in words)", "setting": "U266 cells [1]; 6 days", "result": "inhibited the IgE production in a dose-dependent manner"}]}, {"molecule": "COc1ccc(C[C@H]2COC(=O)[C@@H]2Cc2ccc(O[C@@H]3O[C@H](CO)[C@@H](O)[C@H](O)[C@H]3O)c(OC)c2)cc1OC", "note": "[arctiin]", "values": [{"measurement": "effect on IgE production by U266 cells (in words)", "setting": "U266 cells [1]; 6 days", "result": "inhibited the IgE production by U266 in dose-dependent manner"}]}, {"molecule": "O=C1c2ccccc2C(=O)c2c(O)c(O)cc(O)c21", "note": "[purpurin]", "values": [{"measurement": "IC50", "setting": "U266 cells [1]; Homo sapiens, U-266, 144 h", "result": 0.353, "unit": "µg/mL"}, {"measurement": "effect on IgE production by U266 cells (in words)", "setting": "U266 cells [1]; 6 days", "result": "inhibited the IgE production in a dose-dependent manner"}]}, {"molecule": "O=C1c2ccccc2C(=O)c2c(O)cc(O)cc21", "note": "[1,3-Dihydroxyanthraquinone]", "values": [{"measurement": "symptom scores following peanut challenge", "setting": "[2]; vs sham", "result": "significantly weaker reactions"}, {"measurement": "Peanut-Specific IgE levels", "setting": "[2]; weeks 12 and 16", "result": "markedly reduced"}, {"measurement": "protection against acute peanut induced anaphylaxis", "setting": "[3]; 400 μg daily for four weeks", "result": "protected against the acute anaphylaxis"}, {"measurement": "median anaphylactic symptom score", "setting": "[3]; 400 μg daily for four weeks, vs sham", "result": "significant lower"}, {"measurement": "body temperature following PN challenge", "setting": "[3]", "result": "normal body temperatures"}, {"measurement": "histamine level in plasma", "setting": "[3]; vs sham", "result": "significantly decreased"}, {"measurement": "effect on IgE production by U266 cells (in words)", "setting": "U266 cells [1]; 6 days", "result": "dose-dependent inhibition"}]}, {"molecule": "CC1(C)O[C@H]2CC(=O)OC[C@]23[C@H]2CC[C@@]4(C)[C@H](c5ccoc5)OC(=O)[C@H]5O[C@]54[C@]2(C)C(=O)C[C@@H]13", "note": "[limonin]", "values": [{"measurement": "inhibition at 20 µg/mL", "setting": "human PBMCs", "result": 33.9, "unit": "%"}, {"measurement": "inhibition at 20 µg/mL", "setting": "U266 cells [1]; Homo sapiens, U-266, 144 h, 20 μg/mL, 6 days", "result": 35.1, "unit": "%"}, {"measurement": "effect on IgE production by U266 cells (in words)", "setting": "U266 cells [1]; 6 days", "result": "mild reduction of IgE production"}, {"measurement": "cell viability of U266 cells", "setting": "U266 cells [4]", "result": "no toxicity"}]}, {"molecule": "COc1cc(C[C@H]2C(=O)OC[C@@H]2Cc2ccc(OC)c(OC)c2)ccc1O", "note": "[arctigenin]", "values": [{"measurement": "protection against acute peanut induced anaphylaxis", "setting": "[3]; 400 μg daily for four weeks", "result": "protected against the acute anaphylaxis"}, {"measurement": "body temperature following PN challenge", "setting": "[3]", "result": "normal body temperatures"}, {"measurement": "histamine level in plasma", "setting": "[3]; vs sham", "result": "significantly decreased"}, {"measurement": "effect on IgE production by U266 cells (in words)", "setting": "U266 cells [1]; 6 days", "result": "inhibited the IgE production by U266 in dose-dependent manner"}]}, {"molecule": "omalizumab: anti-IgE antibody (Xolair, Genentech)", "values": [{"measurement": "subjects tolerating 4000 mg of peanut flour", "setting": "[5]; after 7-12 weeks", "result": "Twelve of thirteen"}, {"measurement": "subjects tolerating a cumulative dose of 992 mg peanut flour", "setting": "[5]; first day", "result": "All thirteen"}, {"measurement": "patients requiring epinephrine", "setting": "[5]; in vivo", "result": 2, "unit": "patients"}, {"measurement": "peanut tolerability in oral food challenge", "setting": "peanut allergy subjects; post-therapy (24-week), vs placebo", "result": "greater shift in peanut tolerability"}, {"measurement": "serum peanut specific IgE", "setting": "peanut allergy subjects; post-therapy", "result": "reduction of serum peanut specific IgE"}]}]}
